Test: Oral absorption test in rats
Assay type: in vivo
Settings: male SD rats, oral 10 mg value/kg (as active substance)
Experimental: A compound of Example 1 of the present invention and a pivaloyloxymethyl ester derivative of the compound 32, carbapenem in which para-hydroxyphenyl group is directly substituted, which is described in the Journal of Medicinal Chemistry, Vol. 30, p 871-880, 1987 (which is one of the prior arts which are most relevant to the present invention) were orally administered to mice or rats. The concentration of the active substance in serum was measured by bioassay, and absolute bioavailability was compared respectively.
The test sample was prepared in the same manner as in the oral absorption test in mice. […] To thus treated rats were orally administered the test sample (10 mg value/kg (calculated into active substance)). […] The concentration of the active substance in the serum was measured by bioassay in the same manner as in the oral absorption in mice. […]
In regard to the test sample, the value of the concentration of the active substance in serum was plotted to the hours after administration, and calculated the concentration of the active substance-area under hours curve (AUC) or calculated reducing area under hours curve (AUC) from the concentration of the active substance. On the other hand, AUC when the active substance was intravenously administered was calculated as mentioned above. […]
The absolute availability (BA) was calculated based on the above formula.

oral absorbability: did not show oral absorbability
Structure (SMILES): C[C@@H](O)[C@H]1C(=O)N2C(C(=O)OCOC(=O)C(C)(C)C)=C(c3ccc(O)cc3)C[C@H]12 [comparative compound]

Source: US7468364B2, “Carbapenem compounds” (Dainippon Sumitomo Pharma Co., Ltd., priority 2003, dated 2008)
